Test results reported in the supplement of paper PMC10307832.

What was measured:
Assay in all cases: relative viability (nuclei count vs DMSO), 5 days (fraction); higher = more cells survive
RU-SKI 43 + Olaparib = compound: CC[C@@H](C)CNCC(=O)N1CCC2=C([C@@H]1COC3=CC=CC(=C3)C)C=CS2 [RU-SKI 43] + O=C(c1cc(Cc2n[nH]c(=O)c3ccccc23)ccc1F)N1CCN(C(=O)C2CC2)CC1 [Olaparib] (partner 8 µM)
Procedure, shortened: (§1)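 A single step with final 0.05% Triton X-100, 1% formaldehyde and 1 ug/ml Hoechst fixed the cells and stained nuclei 5 days after treatment. Lung cancer cell lines in 1536-well plates had been treated by pin tool the day after seeding with one drug alone or a fixed anchor-drug dose plus five library-drug doses (not always all listed) in √10 steps, and nuclei were counted on 4× images. Relative viability is the ratio of nuclei in treated wells to nuclei in vehicle wells, taken as the median of duplicate plates.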

Irinotecan + Vorinostat = compound: CCc1c2c(nc3ccc(OC(=O)N4CCC(N5CCCCC5)CC4)cc13)-c1cc3c(c(=O)n1C2)COC(=O)[C@]3(O)CC [Irinotecan] + O=C(CCCCCCC(=O)Nc1ccccc1)NO [Vorinostat] (partner 1 µM)
Procedure, shortened: as §1

RU-SKI 43 + Vorinostat = compound: CC[C@@H](C)CNCC(=O)N1CCC2=C([C@@H]1COC3=CC=CC(=C3)C)C=CS2 [RU-SKI 43] + O=C(CCCCCCC(=O)Nc1ccccc1)NO [Vorinostat] (partner 1 µM)
Procedure, shortened: as §1

RU-SKI 43 + AZD7762 = compound: CC[C@@H](C)CNCC(=O)N1CCC2=C([C@@H]1COC3=CC=CC(=C3)C)C=CS2 [RU-SKI 43] + NC(=O)Nc1cc(-c2cccc(F)c2)sc1C(=O)N[C@H]1CCCNC1 [AZD7762] (partner 0.2 µM)
Procedure, shortened: as §1

| Cell Line | relative viability (RU-SKI 43 + Olaparib; first compound 0.1 µM) | relative viability (RU-SKI 43 + Olaparib; first compound 0.3162 µM) | relative viability (RU-SKI 43 + Olaparib; first compound 1 µM) | relative viability (RU-SKI 43 + Olaparib; first compound 3.162 µM) | relative viability (RU-SKI 43 + Olaparib; first compound 10 µM) | relative viability (Irinotecan + Vorinostat; first compound 0.6325 µM) | relative viability (Irinotecan + Vorinostat; first compound 2 µM) | relative viability (Irinotecan + Vorinostat; first compound 6.325 µM) | relative viability (Irinotecan + Vorinostat; first compound 20 µM) | relative viability (RU-SKI 43 + Vorinostat; first compound 0.1 µM) | relative viability (RU-SKI 43 + Vorinostat; first compound 0.3162 µM) | relative viability (RU-SKI 43 + Vorinostat; first compound 1 µM) | relative viability (RU-SKI 43 + Vorinostat; first compound 3.162 µM) | relative viability (RU-SKI 43 + Vorinostat; first compound 10 µM) | relative viability (RU-SKI 43 + AZD7762; first compound 0.1 µM) | relative viability (RU-SKI 43 + AZD7762; first compound 0.3162 µM) | relative viability (RU-SKI 43 + AZD7762; first compound 1 µM) | relative viability (RU-SKI 43 + AZD7762; first compound 3.162 µM) | relative viability (RU-SKI 43 + AZD7762; first compound 10 µM) |
| --- | --- | --- | --- | --- | --- | --- | --- | --- | --- | --- | --- | --- | --- | --- | --- | --- | --- | --- | --- |
| HOP-62 | 0.322 | 0.235 | 0.223 | 0.511 | 0.436 | 0.234 | 0.311 | 0.167 | 0.188 | 0.563 | 0.693 | 0.632 | 0.724 | 0.639 | 0.463 | 0.643 | 0.71 | 0.704 | 0.529 |
| NCI-H1734 | 0.559 | 0.661 | 0.656 | 0.589 | 0.591 |  | 0.522 | 0.195 | 0.175 | 0.821 | 0.833 | 0.81 | 0.852 | 0.701 | 0.588 | 0.604 | 0.573 | 0.61 | 0.579 |
| SW 900 | 0.94 | 0.952 | 0.821 | 0.814 | 0.806 |  | 0.564 | 0.333 | 0.373 | 0.36 | 0.584 | 0.782 | 0.621 | 0.221 | 0.523 | 0.612 | 0.571 | 0.588 | 0.58 |
| NCI-H2170 | 0.587 | 0.683 | 0.599 | 0.61 | 0.59 | 0.864 | 0.753 | 0.327 | 0.102 | 0.831 | 1.06 | 0.763 | 0.843 | 0.889 | 0.846 | 1.07 | 0.959 | 0.866 | 0.882 |
| NCI-H1975 | 0.752 | 1 | 0.892 | 0.729 | 0.767 | 0.714 | 0.708 | 0.378 | 0.269 | 0.736 | 0.781 | 0.749 | 0.723 | 0.618 | 0.763 | 0.748 | 0.97 | 0.671 | 0.803 |
| NCI-H1437 | 0.638 | 0.681 | 0.632 | 0.643 | 0.575 | 0.537 | 0.54 | 0.407 | 0.28 | 0.839 | 0.958 | 0.84 | 0.798 | 0.671 | 1.16 | 1.28 | 1.16 | 1.12 | 1.08 |
| A-427 | 0.707 | 0.759 | 0.68 | 0.752 | 0.626 | 0.738 | 0.785 | 0.384 | 0.33 | 0.868 | 0.823 | 0.933 | 0.873 | 0.786 | 0.726 | 0.761 | 0.765 | 0.851 | 0.674 |
| NCI-H2405 | 0.835 | 0.885 | 0.905 | 0.855 | 0.842 |  | 0.956 | 0.307 | 0.195 | 1.1 | 1.11 | 1.18 | 1.02 | 1 | 0.801 | 0.83 | 0.876 | 0.84 | 0.452 |
| LC-2-ad | 0.697 | 0.774 | 0.771 | 0.712 | 0.677 | 0.312 | 0.373 | 0.283 | 0.181 | 0.739 | 0.738 | 0.697 | 0.693 | 0.633 | 0.899 | 0.945 | 0.95 | 0.896 | 0.857 |
| NCI-H1944 | 0.391 | 0.417 | 0.413 | 0.433 | 0.386 | 0.386 | 0.36 | 0.223 | 0.166 | 0.548 | 0.623 | 0.522 | 0.499 | 0.513 | 0.591 | 0.579 | 0.447 | 0.589 | 0.502 |
| NCI-H322M | 0.703 | 0.817 | 0.76 | 0.797 | 0.703 | 0.734 | 0.886 | 0.732 | 0.32 | 0.83 | 0.925 | 0.911 | 0.998 | 0.782 | 0.57 | 0.561 | 0.474 | 0.624 | 0.465 |
| HCC-44 | 0.984 | 0.981 | 1.06 | 1.06 | 0.954 | 0.998 | 0.839 | 0.451 | 0.461 | 1.14 | 1.12 | 1.12 | 1.15 | 1.05 | 0.995 | 1.04 | 1.08 | 1.06 | 1.01 |
| HCC-827 | 0.614 | 0.733 | 0.659 | 0.72 | 0.669 | 0.721 | 0.766 | 0.281 | 0.236 | 0.768 | 0.81 | 1.04 | 0.783 | 0.885 | 0.188 | 0.155 | 0.206 | 0.223 | 0.197 |
| NCI-H23 | 0.28 | 0.263 | 0.292 | 0.326 | 0.279 | 0.467 | 0.451 | 0.234 | 0.199 | 0.473 | 0.602 | 0.571 | 0.587 | 0.48 | 0.197 | 0.229 | 0.202 | 0.216 | 0.154 |
| NCI-H2342 | 0.387 |  | 0.44 | 0.428 | 0.358 | 0.955 | 0.911 | 0.836 | 0.356 | 0.724 |  | 0.718 | 0.884 | 0.716 | 0.474 |  | 0.564 | 0.468 | 0.477 |
| EMC-BAC-2 | 0.476 | 0.495 | 0.54 | 0.487 | 0.486 | 0.224 | 0.297 | 0.283 | 0.225 | 0.526 | 0.362 | 0.79 | 0.375 | 0.521 | 1.1 | 1.1 | 1.27 | 1.13 | 1.09 |
| EPLC-272H | 0.597 | 0.648 | 0.813 | 0.697 | 0.64 | 0.428 | 0.389 | 0.357 | 0.254 | 0.467 | 0.384 | 0.426 | 0.401 | 0.31 | 0.242 | 0.194 | 0.195 | 0.345 | 0.26 |
